The values below come from patent US7683168B2, “Compositions of novel opioid compounds and method of use thereof” (priority 2005, dated 2010).

Series [1] concerns the target T1, human delta receptor (Homo sapiens, UniProt P41143).
T1 construct: purchased Perkin Elmer, Boston, Mass; 6110549; host or cells: HEK-293 cells
As to the kind of experiment: radioligand binding, human delta receptor, HEK-293 cell membranes. As to conditions: cell not marked (rat), species not given, read-out: δ.

Series [2] deals with T2, human mu opioid receptor (Homo sapiens, UniProt P35372).
T2 construct: purchased Perkin Elmer, Boston, Mass; 6110535; host or cells: CHO cells
The series can be described thus: radioligand binding, human mu opioid receptor, CHO cell membranes. As to conditions: species not given, read-out: μ.

For series [3], the system named is mouse vas deferens. As to the kind of experiment: electrically stimulated mouse vas deferens (MVD) ED50. The note with it: ED50, inhibition of electrically induced contractions. Format: cell-based.
Series [4] deals with seizure-like convulsions in mice. As to the kind of experiment: mouse seizure-like convulsions. Format: in vivo. As for the experimental part:
Mouse Seizure-Like Convulsions and antinociception: The central (CNS) effects of the compound were tested with central delta receptor mediated seizure-like convulsions and central mu opioid receptor mediated antinociceptive effects in mice. Male CD-1 mice (Charles River, Raleigh, N.C.) weighing 20-25 g were used to determine the seizure-like convulsion and antinociception activities for compounds.
They were then observed for seizure-like convulsions for one hour following the treatment. A seizure-like event was recorded if a mouse had uncontrollable clonic (or tonic/clonic) muscle movements that encompassed its entire body, usually followed by a brief cataleptic period. Catalepsy was determined by placing the animal's front paws on a horizontal bar held 2-3 inches from the cage floor. Cataleptic animals made no attempt to remove their paws.

T2 sequence (P35372 whole entry): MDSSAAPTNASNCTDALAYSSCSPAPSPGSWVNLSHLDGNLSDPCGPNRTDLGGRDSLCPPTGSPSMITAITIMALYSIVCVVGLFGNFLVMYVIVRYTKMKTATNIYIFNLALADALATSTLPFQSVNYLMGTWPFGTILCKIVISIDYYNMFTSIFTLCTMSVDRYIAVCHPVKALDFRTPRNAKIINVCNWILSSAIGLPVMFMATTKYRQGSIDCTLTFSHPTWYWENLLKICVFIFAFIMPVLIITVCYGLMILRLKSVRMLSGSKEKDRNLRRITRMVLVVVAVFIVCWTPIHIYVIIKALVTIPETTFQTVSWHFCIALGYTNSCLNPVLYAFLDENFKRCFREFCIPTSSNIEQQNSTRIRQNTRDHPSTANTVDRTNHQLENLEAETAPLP
T1 sequence (P41143 whole entry): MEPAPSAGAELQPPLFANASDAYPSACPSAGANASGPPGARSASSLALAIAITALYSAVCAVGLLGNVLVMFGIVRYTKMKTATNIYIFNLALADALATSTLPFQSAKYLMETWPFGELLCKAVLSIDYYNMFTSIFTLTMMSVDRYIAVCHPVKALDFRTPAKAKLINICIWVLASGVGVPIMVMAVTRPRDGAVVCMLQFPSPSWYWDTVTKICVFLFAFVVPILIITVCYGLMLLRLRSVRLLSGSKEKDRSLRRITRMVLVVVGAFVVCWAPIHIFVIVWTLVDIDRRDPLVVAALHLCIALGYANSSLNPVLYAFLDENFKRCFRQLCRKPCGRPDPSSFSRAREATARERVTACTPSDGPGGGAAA

As a reminder, the EC50 is the concentration giving half of the maximal effect. Higher therefore signals weaker potency. Consider `C[C@@H]1CN(C(c2cccc(O)c2)c2cccc(C(=O)N3CCCN(CCCCC(=O)O)CC3)c2)[C@@H](C)CN1Cc1ccccc1` (stereo partly drawn), for which the Ki is 20.4 nM in series [1] and 23.5 nM in series [2]. In series [3], this molecule yielded an EC50 of 3.28 nM. For the same molecule, the Seiz. in series [4] (10 mg/kg IV) worked out at 0% 10 mg/kg IV.
With `C=CCN1C[C@H](C)N([C@@H](c2cccc(O)c2)c2cccc(C(=O)N(C)CC(=O)OCC)c2)C[C@H]1C` [Example 151, ({3-[(R)-((2S,5R)-4-Allyl-2,5-dimethyl-piperazin-1-yl)-(3-hydroxy-phenyl)-methyl]-benzoyl}-methyl-amino)-acetic acid ethyl ester], the Ki in series [2] came to 0.5 nM. This molecule displayed an EC50 in series [3] of 1.6 nM. Moreover, the Seiz. in series [4] (10 mg/kg IV) is 100% 10 mg/kg IV.
For `C=CCN1C[C@H](C)N([C@@H](c2cccc(O)c2)c2cccc(C(=O)N3CCN(CCCCCCC(=O)O)CC3)c2)C[C@H]1C` [Example 109, 7-(4-{3-[(R)-((2S,5R)-4-Allyl-2,5-dimethyl-piperazin-1-yl)-(3-hydroxy-phenyl)-methyl]-benzoyl}-piperazin-1-yl)-heptanoic acid], the Ki in series [1] was found to be 1.9 nM. In addition, in series [3], the response was half-maximal at 7.48 nM (EC50). This molecule also registered a Seiz. in series [4] (10 mg/kg IV) of 0% 10 mg/kg IV.
As for `C[C@@H]1CN([C@@H](c2cccc(O)c2)c2cccc(C(=O)N3CCN(CCCCCC(=O)O)CC3)c2)[C@@H](C)CN1Cc1cccc(F)c1` [Example 99, 6-(4-{3-[(R)-((2S,5R)-4-(3-Fluorobenzyl)-2,5-dimethyl-piperazin-1-yl)-(3-hydroxy-phenyl)-methyl]-benzoyl}-piperazin-1-yl)-hexanoic acid], the Ki in series [1] was 15.7 nM. This molecule gave an EC50 in series [3] of 10.6 nM. Also, in series [4] (10 mg/kg IV), the Seiz. worked out at 0% 10 mg/kg IV.
In the case of `C[C@@H]1CN([C@@H](c2cccc(O)c2)c2cccc(C(=O)N3CCN(Cc4ccc(C(=O)O)cc4)CC3)c2)[C@@H](C)CN1CC1CC1` [Example 103, 4-(4-{3-[(R)-((2S,5R)-4-Cyclopropylmethyl-2,5-dimethyl-piperazin-1-yl)-(3-hydroxy-phenyl)-methyl]-benzoyl}-piperazin-1-ylmethyl)-benzoic acid], the Ki in series [2] was found to be 84.7 nM. Further, in series [3], the EC50 came out at 187 nM. The molecule further yielded a Seiz. in series [4] (60 mg/kg PO) of 0% 60 mg/kg PO.
For `CCOC(=O)CCCCCCN1CCN(C(=O)c2cccc([C@H](c3cccc(O)c3)N3C[C@@H](C)N(Cc4ccccc4)C[C@@H]3C)c2)CC1` [Example 110, 7-(4-{3-[(R)-((2S,5R)-4-Benzyl-2,5-dimethyl-piperazin-1-yl)-(3-hydroxy-phenyl)-methyl]-benzoyl}-piperazin-1-yl)-heptanoic acid ethyl ester], a half-maximal effect in series [3] (EC50) was put at 18.8 nM. In addition, the Seiz. in series [4] (10 mg/kg IV) is recorded as 70% 10 mg/kg IV.
For the molecule `C=CCN1C[C@H](C)N([C@@H](c2cccc(O)c2)c2cccc(C(=O)N(C)CC(=O)O)c2)C[C@H]1C` [Example 152, ({3-[(R)-((2S,5R)-4-Allyl-2,5-dimethyl-piperazin-1-yl)-(3-hydroxy-phenyl)-methyl]-benzoyl}-methyl-amino)-acetic acid], in series [1], the Ki worked out at 0.7 nM. In series [3], this molecule had an EC50 of 2.36 nM. In series [4] (10 mg/kg IV), this molecule came in with a Seiz. of 0% 10 mg/kg IV.
As for `C=CCN1C[C@H](C)N([C@@H](c2cccc(O)c2)c2cccc(C(=O)N3CCN(CCCCCC(=O)OCC)CC3)c2)C[C@H]1C` [Example 93, 6-(4-{3-[(R)-((2S,5R)-4-Allyl-2,5-dimethyl-piperazin-1-yl)-(3-hydroxy-phenyl)-methyl]-benzoyl}-piperazin-1-yl)-hexanoic acid ethyl ester], the Ki came out at 5.4 nM in series [1] and 30.5 nM in series [2]. In addition, the response in series [3] was half-maximal at 58.8 nM (EC50).
Consider `CCOC(=O)N1CCN(C(=O)c2cccc([C@H](c3cccc(O)c3)N3C[C@@H](C)N(Cc4cccc(F)c4)C[C@@H]3C)c2)CC1` [Example 60, 4-{3-[(R)-[(2S,5R)-4-(3-Fluorobenzyl)-2,5-dimethylpiperazin-1-yl]-(3-hydroxyphenyl)methyl]benzoyl}piperazine-1-carboxylic acid ethyl ester], for which the Ki turned out to be 13.1 nM in series [1] and 9.8 nM in series [2]. Further, in series [3], the EC50 stood at 47.2 nM.
`C=CCN1C[C@H](C)N([C@@H](c2cccc(O)c2)c2cccc(C(=O)N3CCC[C@H]3C(=O)O)c2)C[C@H]1C` [Example 144, 1-{3-[(R)-((2S,5R)-4-Allyl-2,5-dimethyl-piperazin-1-yl)-(3-hydroxy-phenyl)-methyl]-benzoyl}-pyrrolidine-2-carboxylic acid]: the Ki in series [1] worked out at 0.62 nM. For the same molecule, the EC50 in series [3] was 1.15 nM. In series [4] (10 mg/kg IV), this molecule had a Seiz. of 0% 10 mg/kg IV.
For the molecule `C=CCN1C[C@H](C)N(C(c2cccc(O)c2)c2cccc(C(=O)N3CCCN(Cc4cccc(C(=O)O)c4)CC3)c2)C[C@H]1C` (stereo partly drawn), the Ki in series [2] was 5.5 nM. The molecule further came in with an EC50 in series [3] of 6.23 nM. The same molecule had a Seiz. in series [4] (10 mg/kg IV) of 0% 10 mg/kg IV.
Turning to `C=CCN1C[C@H](C)N(C(c2cccc(O)c2)c2cccc(C(=O)N3CCCN(CCCCCCC(=O)O)CC3)c2)C[C@H]1C` (stereo partly drawn), the Ki is 5.6 nM in series [1] and 8.3 nM in series [2]. For the same molecule, the EC50 in series [3] was 34.9 nM.
As for `C=CCN1C[C@H](C)N(C(c2cccc(O)c2)c2cccc(C(=O)N3CCCN(Cc4ccccc4C(=O)O)CC3)c2)C[C@H]1C` (stereo partly drawn), in series [2], the Ki amounted to 1.4 nM. The molecule further displayed an EC50 in series [3] of 2.2 nM. In series [4] (10 mg/kg IV), this molecule registered a Seiz. of 40% 10 mg/kg IV.
Regarding `CCOC(=O)CCCN1CCCN(C(=O)c2cccc(C(c3cccc(O)c3)N3C[C@@H](C)N(CC4CC4)C[C@@H]3C)c2)CC1` (stereo partly drawn), the results for the Ki in series [1] and in series [2] were 10.3 nM and 3.9 nM, respectively. In series [3], this molecule gave an EC50 of 92.5 nM.
As to `C[C@@H]1CN(C(c2cccc(O)c2)c2cccc(C(=O)N3CCCN(CCCCCCC(=O)O)CC3)c2)[C@@H](C)CN1CC1CC1` (stereo partly drawn), the Ki in series [1] came out at 50.6 nM; in series [2] it was 40.7 nM. This molecule gave an EC50 in series [3] of 339 nM.
The matching figures for `C[C@@H]1CN([C@@H](c2cccc(O)c2)c2cccc(C(=O)N3CCN(CCCCC(=O)O)CC3)c2)[C@@H](C)CN1CC1CC1` [Example 90, 5-(4-{3-[(R)-((2S,5R)-4-Cyclopropylmethyl-2,5-dimethyl-piperazin-1-yl)-(3-hydroxy-phenyl)-methyl]-benzoyl}-piperazin-1-yl)-pentanoic acid]: 32.5 nM, 409 nM and 46.2 nM.
`CCOC(=O)CCCN1CCN(C(=O)c2cccc([C@H](c3cccc(O)c3)N3C[C@@H](C)N(Cc4cccc(F)c4)C[C@@H]3C)c2)CC1` [Example 81, 4-(4-{3-[(R)-((2S,5R)-4-(3-Fluorobenzyl)-2,5-dimethyl-piperazin-1-yl)-(3-hydroxy-phenyl)-methyl]-benzoyl}-piperazin-1-yl)-butyric acid ethyl ester]: the Ki in series [1] was determined as 12.7 nM; in series [2], 4.9 nM. The EC50 in series [3] turned out to be 44.8 nM.
As to `CCOC(=O)CN1CCN(C(=O)c2cccc([C@H](c3cccc(O)c3)N3C[C@@H](C)N(CC4CC4)C[C@@H]3C)c2)CC1` [Example 70, (4-{3-[(R)-((2S,5R)-4-Cyclopropylmethyl-2,5-dimethyl-piperazin-1-yl)-(3-hydroxy-phenyl)-methyl]-benzoyl}-piperazin-1-yl)-acetic acid ethyl ester], the Ki stood at 3.5 nM in series [1] and 8.7 nM in series [2]. This molecule also registered an EC50 in series [3] of 55.4 nM.
For `CCOC(=O)CCCCCN1CCCN(C(=O)c2cccc(C(c3cccc(O)c3)N3C[C@@H](C)N(CC4CC4)C[C@@H]3C)c2)CC1` (stereo partly drawn), in that order: 23.5 nM, 9.3 nM and 1040 nM.
`C[C@@H]1CN(C(c2cccc(O)c2)c2cccc(C(=O)N3CCCN(CCCCCCC(=O)O)CC3)c2)[C@@H](C)CN1Cc1ccccc1` (stereo partly drawn): the Ki in series [1] is 4.9 nM; in series [2] it was 6.3 nM. In series [3], a half-maximal effect (EC50) was put at 10.4 nM.
With `C[C@@H]1CN(C(c2cccc(O)c2)c2cccc(C(=O)N3CCCN(CCCCCCC(=O)O)CC3)c2)[C@@H](C)CN1Cc1cccc(F)c1` (stereo partly drawn), the figures for the Ki in series [1] and in series [2] were 141 nM and 222 nM, respectively. It took 109 nM to reach a half-maximal effect in series [3] (EC50).
For `CCOC(=O)CN1CCN(C(=O)c2cccc([C@H](c3cccc(O)c3)N3C[C@@H](C)N(Cc4cccc(F)c4)C[C@@H]3C)c2)CC1` [Example 66, (4-{3-[(R)-[(2S,5R)-4-(3-Fluoro-benzyl)-2,5-dimethyl-piperazin-1-yl]-(3-hydroxy-phenyl)-methyl]-benzoyl}-piperazin-1-yl)-acetic acid ethyl ester], in that order: 1.3 nM, 5.05 nM and 22 nM.
Turning to `C[C@@H]1CN(C(c2cccc(O)c2)c2cccc(C(=O)N3CCCN(CCCCCC(=O)O)CC3)c2)[C@@H](C)CN1Cc1cccc(F)c1` (stereo partly drawn), the Ki in series [1] came out at 25.1 nM; in series [2], 222 nM. Also, the EC50 in series [3] was 16.2 nM.
Consider `C[C@@H]1CN([C@@H](c2cccc(O)c2)c2cccc(C(=O)N3CCN(CC(=O)O)CC3)c2)[C@@H](C)CN1Cc1cccc(F)c1` [Example 67, (4-{3-[(R)-[(2S,5R)-4-(3-Fluoro-benzyl)-2,5-dimethyl-piperazin-1-yl]-(3-hydroxy-phenyl)-methyl]-benzoyl}-piperazin-1-yl)-acetic acid], for which, in series [2], the Ki turned out to be 10.7 nM. In addition, the response in series [3] was half-maximal at 2.82 nM (EC50). The Seiz. in series [4] (10 mg/kg IV) is listed as 0% 10 mg/kg IV.
